Where two headings read alike, the source gives them in different places.

This experiment deals with stomach mucosa. The experiment is described as follows: cytoprotective activity in rats (ethanol-induced stomach mucosa lesions). The class given is in vivo, Sprague-Dawley rats. The note with it: for response vs control in vivo at 5 mg/kg / inhibition in vivo at 5 mg/kg: Rattus norvegicus, 1 h; for response vs control in vivo at 5 mg/kg / inhibition in vivo at 5 mg/kg / % Protection: 5 mg per kg oral, half hour before absolute ethanol 10 ml per kg oral; for response vs control in vivo at 5 mg/kg: average lesion length as % of control animals; for inhibition in vivo at 5 mg/kg: lesions vs control, read-out: LESIONS % reduction; for cytoprotective activity (in words): comparison of enantiomers and racemate, Table III; for % Protection: optically pure compounds of Example XIX. On the procedure:
A number of the 7-oxa prostanoic acid derivatives has been tested for cytoprotective activity in rats. In this test, Sprague-Dawley rats are fasted for 24 hours prior to the pretreatment. The pretreatment is oral administration of a 5 mg per kg body weight dose of the prostanoid in 2.5 ml of a vehicle consisting of Tween 80 (0.75%) and the balance water. The control animals are given 2.5 ml of the vehicle, without prostanoid. A half hour after the pretreatment, absolute ethanol is administered orally to the animals, in a dose of 10 ml per kg body weight. One hour later the animals are sacrificed, their stomachs dissected out, opened along the greater curvature and the mucose examined for lesions. The average lesion length is expressed as percentage of the average lesion length found in the stomach mucosa of control animals.
Importantly, this test measures the active cytoprotective properties of the prostanoids, independent of the gastric secretion inhibition that these compounds may or may not show. The test is discussed more fully by Robert et al., Gastroenterology 77 (1979) 433, incorporated herein by reference.
methyl-7-oxa-9-oxo-Prostanoate derivatives were tested for cytoprotective properties. The compounds differed with respect to the nature of the C13 -C14 bond (triple, cis or trans double, or single), the substituent(s) at the 15-position and at the 16-position. […]
The optically pure compounds of Example XIX were tested for cytoprotective activity. The following results were obtained (Table III).

[1] abbreviates: 7-oxa-9-oxo-methyl prostanoate derivatives.
Where [2] appears, read: methyl-7-oxa-9-alpha-hydroxy prost-13,14-ynoate derivatives.

With `CCCCCC(=O)/C=C\[C@H]1CCC(=O)[C@@H]1OCCCCCC(=O)OC` (relative stereo) [cis oxo H,H (7-oxa-9-oxo), methyl-9,15-dioxo-7-oxa-cis-prost-13,14-enoate], under setting [1], the response vs control in vivo at 5 mg/kg was determined as 113% and the inhibition in vivo at 5 mg/kg was -13%.
For the molecule `CCCCCCC#C[C@H]1CC[C@H](O)[C@@H]1OCCCCCC(=O)OC` (relative stereo) [triple H,H H,H (7-oxa-9-alpha-hydroxy)], under setting [2], the response vs control in vivo at 5 mg/kg was 90% and the inhibition in vivo at 5 mg/kg stood at 10%.
With `CCCCC(C)(C)C(=O)C#C[C@H]1CCC(=O)[C@@H]1OCCCCCC(=O)OC` (relative stereo) [triple oxo Me,Me (7-oxa-9-oxo)], under setting [1], the response vs control in vivo at 5 mg/kg is 16% and the inhibition in vivo at 5 mg/kg came to 84%.
Taken in the same sequence, the figures for `CCCCCC(O)C#C[C@H]1CCC(=O)[C@@H]1OCCCCCC(=O)OC` (relative stereo) [triple (R,S)OH H,H (7-oxa-9-oxo), methyl 15-hydroxy-7-oxa-9-oxo-prost-13,14-ynoate] were 31% and 69%.
Consider `CCCCC[C@H](O)C#CC1CCC(=O)C1OCCCCCC(=O)OC` (stereo partly drawn) [(18), methyl-(S)-15-hydroxy-7-oxa-9-oxo-prost-13,14-ynoate], for which the “cytoprotective activity (in words)” value is reported as “high cytoprotective activity” and the “% Protection” value was determined as 96%.
As to `CCCCCC(C)(O)/C=C\[C@H]1CCC(=O)[C@@H]1OCCCCCC(=O)OC` (relative stereo) [cis (R,S)OH,Me H,H (7-oxa-9-oxo)], under setting [1], the response vs control in vivo at 5 mg/kg was found to be 71% and the inhibition in vivo at 5 mg/kg amounted to 29%.
In the same order, the values of `CCCCCC(O)/C=C\[C@H]1CCC(=O)[C@@H]1OCCCCCC(=O)OC` (relative stereo) [cis (R,S)OH H,H (7-oxa-9-oxo), methyl-15-hydroxy-7-oxa-9-oxo-cis-prost-13-14-enoate] are 31% and 69%.
Consider `CCCCCC(C)(O)/C=C/[C@H]1CCC(=O)[C@@H]1OCCCCCC(=O)OC` (relative stereo) [trans (R,S)OH,Me H,H (7-oxa-9-oxo)], for which, under setting [1], the response vs control in vivo at 5 mg/kg was 54% and the inhibition in vivo at 5 mg/kg was determined as 46%.
For `CCCCCC(C)(O)CC[C@H]1CCC(=O)[C@@H]1OCCCCCC(=O)OC` (relative stereo) [single (R,S)OH,Me H,H (7-oxa-9-oxo)], under setting [1], the response vs control in vivo at 5 mg/kg came out at 67% and the inhibition in vivo at 5 mg/kg was determined as 33%.
In the same order, the values of `CCCCCC(=O)/C=C/[C@H]1CCC(=O)[C@@H]1OCCCCCC(=O)OC` (relative stereo) [trans oxo H,H (7-oxa-9-oxo)] are 118% and -18%.
In the case of `CCCCCC(=O)C#C[C@H]1CCC(=O)[C@@H]1OCCCCCC(=O)OC` (relative stereo) [triple oxo H,H (7-oxa-9-oxo), methyl-9,15-dioxo-7-oxa-prost-13,14-ynoate], the “cytoprotective activity (in words)” value is reported as “the same”. For the same molecule, under setting [1], the response vs control in vivo at 5 mg/kg was found to be 4% and the inhibition in vivo at 5 mg/kg is 96%.
Consider `CCCCCCC#C[C@H]1CCC(=O)[C@@H]1OCCCCCC(=O)OC` (relative stereo) [triple H,H H,H (7-oxa-9-oxo)], for which, under setting [1], the response vs control in vivo at 5 mg/kg amounted to 81% and the inhibition in vivo at 5 mg/kg turned out to be 19%.
For `CCCCCC(=O)CC[C@H]1CCC(=O)[C@@H]1OCCCCCC(=O)OC` (relative stereo) [single oxo H,H (7-oxa-9-oxo)], under setting [1], the response vs control in vivo at 5 mg/kg was 128% and the inhibition in vivo at 5 mg/kg is -28%.
For the molecule `CCCCCC(C)(O)C#C[C@H]1CCC(=O)[C@@H]1OCCCCCC(=O)OC` (relative stereo) [triple (R,S)OH,Me H,H (7-oxa-9-oxo)], under setting [1], the response vs control in vivo at 5 mg/kg amounted to 82% and the inhibition in vivo at 5 mg/kg is 18%.
`CCCCC[C@@H](O)C#CC1CCC(=O)C1OCCCCCC(=O)OC` (stereo partly drawn) [(19), methyl-(R)-15-hydroxy-7-oxa-9-oxo-prost-13,14-ynoate]: the “% Protection” value was -34%.
For `CCCCCC(=O)C#C[C@H]1CC[C@H](O)[C@@H]1OCCCCCC(=O)O` (relative stereo), under setting [2], the response vs control in vivo at 5 mg/kg worked out at 7% and the inhibition in vivo at 5 mg/kg was determined as 93%.
Taken in the same sequence, the figures for `CCCCC(C)(C)C(O)C#C[C@H]1CC[C@H](O)[C@@H]1OCCCCCC(=O)OC` (relative stereo) were 83% and 17%.
For the molecule `CCCCCC(=O)C#C[C@H]1CC[C@H](O)[C@@H]1OCCCCCC(=O)OC` (relative stereo) [triple oxo H,H (7-oxa-9-alpha-hydroxy), methyl 9-alpha-hydroxy-7-oxa-15-oxo-prost-13,14-ynoate], under setting [2], the response vs control in vivo at 5 mg/kg came to 20% and the inhibition in vivo at 5 mg/kg was found to be 80%.
Taken in the same sequence, the figures for `CCCCCC(O)C#C[C@H]1CC[C@H](O)[C@@H]1OCCCCCC(=O)OC` (relative stereo) [methyl-9-alpha-hydroxy-15-hydroxy-7-oxa-Prost-13,14-ynoate] were 93% and 7%.

Values taken from patent publication US4345984A, “Novel prostaglandin analogues and process for making same” (The Procter & Gamble Company, priority 1981, dated 1982).
